Data taken from patent US7297700B2, “Bicycloheteroaryl compounds as P2X7 modulators and uses thereof” (Renovis, Inc., priority 2005, dated 2007).

Each compound was assayed on IL-1β release from THP-1 cells (assay: IL-1β Release Assay (Alternate Method), THP-1 cells). Conditions: Homo sapiens; at 0.3 μM; THP-1 cells, BzATP-stimulated; read-out: IL-1β % inhibition.
Assay type: cell-based, human
In short: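 IL-1β release, measured by ELISA, follows 45 min BzATP (250 uM final) stimulation of THP-1 cells given 30 min compound pretreatment. Cells were first primed 16 h with LPS and IFN-γ (100 ng/mL each), then 2 h with fresh LPS; inhibition expressed in percent after background correction.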
`O=C(CC12CC3CC(CC(C3)C1)C2)Nc1cccc2c1C=CN(Cc1ccc(F)cc1)C2` [Compound 636] was tested, and the inhibition at 0.3 µM was 0 to 25%.

Same assay, conditions: at 0.3 μM; THP-1 cells, BzATP-stimulated
In the case of `COc1ccccc1CN1CCc2c(ncnc2NC(=O)C23CC4CC(CC(C4)C2)C3)C1` [Compound 615], the IL-1β % inhibition is reported as “+++ (compound exhibited 50-75% inhibition at 0.3 μM)”. In the case of `O=C(Nc1ncnc2c1CCN(Cc1cc(Br)ccc1F)C2)C12CC3CC(CC(C3)C1)C2` [Compound 618], the IL-1β % inhibition is reported as “+ (compound exhibited 0-25% inhibition at 0.3 μM)”. `O=C(Nc1ncnc2c1CCN(CC1CCCC1)C2)C12CC3CC(CC(C3)C1)C2` [Compound 619] was tested, and the IL-1β % inhibition was “+ (compound exhibited 0-25% inhibition at 0.3 μM)”. With `O=C(Nc1ncnc2c1CCN(Cc1ccc(OC(F)(F)F)cc1)C2)C12CC3CC(CC(C3)C1)C2` [Compound 620] the IL-1β % inhibition was “++ (compound exhibited 25-50% inhibition at 0.3 μM)”. In the case of `O=C(Nc1ncnc2c1CCN(Cc1ccc(OC(F)F)cc1)C2)C12CC3CC(CC(C3)C1)C2` [Compound 621], the IL-1β % inhibition is reported as “+++ (compound exhibited 50-75% inhibition at 0.3 μM)”. In the case of `O=C(Nc1ncnc2c1CCN(Cc1ccc(OCc3ccc(F)cc3)cc1)C2)C12CC3CC(CC(C3)C1)C2` [Compound 622], the IL-1β % inhibition is reported as “++ (compound exhibited 25-50% inhibition at 0.3 μM)”. `COc1cc(F)c(CN2CCc3c(ncnc3NC(=O)C34CC5CC(CC(C5)C3)C4)C2)cc1OC` [Compound 623] was tested, and the IL-1β % inhibition was “+ (compound exhibited 0-25% inhibition at 0.3 μM)”. In the case of `COc1cc(F)c(CN2CCc3c(ncnc3NC(=O)C34CC5CC(CC(C5)C3)C4)C2)c(F)c1` [Compound 624], the IL-1β % inhibition is reported as “+ (compound exhibited 0-25% inhibition at 0.3 μM)”. In the case of `CCOc1cccc(CN2CCc3c(ncnc3NC(=O)C34CC5CC(CC(C5)C3)C4)C2)c1` [Compound 625], the IL-1β % inhibition is reported as “+ (compound exhibited 0-25% inhibition at 0.3 μM)”. With `O=C(Nc1ncnc2c1CCN(Cc1cccc(Oc3cccc(C(F)(F)F)c3)c1)C2)C12CC3CC(CC(C3)C1)C2` [Compound 626] the IL-1β % inhibition was “++ (compound exhibited 25-50% inhibition at 0.3 μM)”. In the case of `O=C(Nc1ncnc2c1CCN(Cc1ccc3c(c1)OC(F)(F)O3)C2)C12CC3CC(CC(C3)C1)C2` [Compound 627], the IL-1β % inhibition is reported as “++++ (compound exhibited 75% or greater inhibition at 0.3 μM)”. In the case of `COc1ccc(F)c(CN2CCc3c(ncnc3NC(=O)C34CC5CC(CC(C5)C3)C4)C2)c1` [Compound 628], the IL-1β % inhibition is reported as “+ (compound exhibited 0-25% inhibition at 0.3 μM)”. In the case of `COc1cc(CN2CCc3c(ncnc3NC(=O)C34CC5CC(CC(C5)C3)C4)C2)ccc1F` [Compound 629], the IL-1β % inhibition is reported as “+ (compound exhibited 0-25% inhibition at 0.3 μM)”. `CCOc1ccc(CN2CCc3c(ncnc3NC(=O)C34CC5CC(CC(C5)C3)C4)C2)cc1` [Compound 630] was tested, and the IL-1β % inhibition was “++++ (compound exhibited 75% or greater inhibition at 0.3 μM)”. In the case of `COc1ccc(OC)c(CN2CCc3c(ncnc3NC(=O)C34CC5CC(CC(C5)C3)C4)C2)c1` [Compound 631], the IL-1β % inhibition is reported as “+ (compound exhibited 0-25% inhibition at 0.3 μM)”. With `O=C(Nc1ncnc2c1CCN(Cc1cccc(OC(F)(F)F)c1)C2)C12CC3CC(CC(C3)C1)C2` [Compound 632] the IL-1β % inhibition was “++ (compound exhibited 25-50% inhibition at 0.3 μM)”. For `COc1cc(CN2CCc3c(ncnc3NC(=O)C34CC5CC(CC(C5)C3)C4)C2)cc(OC)c1` [Compound 633], the IL-1β % inhibition was “+ (compound exhibited 0-25% inhibition at 0.3 μM)”. In the case of `O=C(Nc1ncnc2c1CCN(Cc1ccc(Cl)nc1)C2)C12CC3CC(CC(C3)C1)C2` [Compound 634], the IL-1β % inhibition is reported as “+ (compound exhibited 0-25% inhibition at 0.3 μM)”. With `O=C(Nc1ncnc2c1CCN(Cc1ccc(Cl)cc1F)C2)C12CC3CC(CC(C3)C1)C2` [Compound 635] the IL-1β % inhibition was “+ (compound exhibited 0-25% inhibition at 0.3 μM)”.
